According to the supplement of paper PMC10307832:

Columns and labels:
Experiment in all cases: relative viability (nuclei count vs DMSO), 5 days (fraction); higher = more cells survive
Dovitinib + Navitoclax = compound: CN1CCN(c2ccc3nc(-c4c(N)c5c(F)cccc5[nH]c4=O)[nH]c3c2)CC1 [Dovitinib] + CC1(C)CCC(c2ccc(Cl)cc2)=C(CN2CCN(c3ccc(C(=O)NS(=O)(=O)c4ccc(N[C@H](CCN5CCOCC5)CSc5ccccc5)c(S(=O)(=O)C(F)(F)F)c4)cc3)CC2)C1 [Navitoclax] (partner 0.5 µM)
In short: (§1)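 Dosing by pin tool came one day after lung cancer cell lines were seeded in 1536-well plates, using either one drug or a fixed anchor-drug dose plus five library-drug doses (not always all listed) in √10 steps. After 5 days, nuclei were counted on 4× images. Relative viability is treated-well nuclei count divided by vehicle-well nuclei count, and values are medians of duplicate plates.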

Dovitinib + Vorinostat = compound: CN1CCN(c2ccc3nc(-c4c(N)c5c(F)cccc5[nH]c4=O)[nH]c3c2)CC1 [Dovitinib] + O=C(CCCCCCC(=O)Nc1ccccc1)NO [Vorinostat] (partner 1 µM)
In short: as §1

Dovitinib + Crizotinib = compound: CN1CCN(c2ccc3nc(-c4c(N)c5c(F)cccc5[nH]c4=O)[nH]c3c2)CC1 [Dovitinib] + C[C@@H](Oc1cc(-c2cnn(C3CCNCC3)c2)cnc1N)c1c(Cl)ccc(F)c1Cl [Crizotinib] (partner 1 µM)
In short: as §1

Dovitinib + Tozasertib = compound: CN1CCN(c2ccc3nc(-c4c(N)c5c(F)cccc5[nH]c4=O)[nH]c3c2)CC1 [Dovitinib] + Cc1cc(Nc2cc(N3CCN(C)CC3)nc(Sc3ccc(NC(=O)C4CC4)cc3)n2)n[nH]1 [Tozasertib] (partner 0.1 µM)
In short: as §1

Row | Cell Line | relative viability (Dovitinib + Navitoclax; first compound 0.02 µM) | relative viability (Dovitinib + Navitoclax; first compound 0.06325 µM) | relative viability (Dovitinib + Navitoclax; first compound 0.2 µM) | relative viability (Dovitinib + Navitoclax; first compound 0.6325 µM) | relative viability (Dovitinib + Navitoclax; first compound 2 µM) | relative viability (Dovitinib + Vorinostat; first compound 0.02 µM) | relative viability (Dovitinib + Vorinostat; first compound 0.06325 µM) | relative viability (Dovitinib + Vorinostat; first compound 0.2 µM) | relative viability (Dovitinib + Vorinostat; first compound 0.6325 µM) | relative viability (Dovitinib + Vorinostat; first compound 2 µM) | relative viability (Dovitinib + Crizotinib; first compound 0.02 µM) | relative viability (Dovitinib + Crizotinib; first compound 0.06325 µM) | relative viability (Dovitinib + Crizotinib; first compound 0.2 µM) | relative viability (Dovitinib + Crizotinib; first compound 0.6325 µM) | relative viability (Dovitinib + Crizotinib; first compound 2 µM) | relative viability (Dovitinib + Tozasertib; first compound 0.02 µM) | relative viability (Dovitinib + Tozasertib; first compound 0.06325 µM) | relative viability (Dovitinib + Tozasertib; first compound 0.2 µM) | relative viability (Dovitinib + Tozasertib; first compound 0.6325 µM) | relative viability (Dovitinib + Tozasertib; first compound 2 µM)
1 | COR-L 105 | 0.701 | 0.62 | 0.754 | 0.646 | 0.806 | 0.867 | 0.801 | 0.833 | 0.69 | 0.794 | 0.706 | 0.832 | 0.774 | 0.701 | 0.69 | 0.345 | 0.299 | 0.365 | 0.394 | 0.168
2 | LK-2 | 0.995 | 0.896 | 0.876 | 0.766 | 0.767 | 0.262 | 0.403 | 0.373 | 0.373 | 0.364 | 0.216 | 0.215 | 0.275 | 0.223 | 0.281 | 0.175 | 0.182 | 0.182 | 0.181 | 0.149
3 | NCI-H727 | 0.497 | 0.491 | 0.421 | 0.468 | 0.414 | 1.19 | 1.12 | 1.25 | 1.39 | 1.25 | 0.42 | 0.757 | 0.657 | 0.877 | 0.813 | 0.573 | 0.658 | 0.588 | 0.691 | 0.761
4 | RERF-LC-KJ | 0.794 | 1.06 | 1.1 | 1.15 | 1.09 | 0.654 | 0.681 | 0.761 | 0.667 | 0.685 | 0.796 | 0.817 | 0.86 | 0.815 | 0.861 | 0.556 | 0.369 | 0.516 | 0.518 | 0.511
5 | NCI-H2023 | 0.996 | 1.03 | 1.04 | 0.945 | 0.929 | 0.532 | 0.745 | 0.818 | 0.683 | 0.579 | 0.55 | 0.604 | 0.591 | 0.573 | 0.481 | 0.324 | 0.334 | 0.384 | 0.261 | 0.313
6 | NCI-H1648 |  |  |  |  |  | 0.402 | 0.422 | 0.425 | 0.361 | 0.516 |  |  |  |  |  | 0.491 | 0.532 | 0.562 | 0.402 | 0.564
7 | NCI-H522 |  |  |  |  |  | 0.811 | 0.848 | 0.923 | 0.837 | 1.01 |  |  |  |  |  | 0.549 | 0.583 | 0.536 | 0.54 | 0.665
8 | NCI-H1793 | 0.407 | 0.359 | 0.456 | 0.476 | 0.373 | 1.01 | 0.753 | 0.751 | 0.891 | 0.773 |  |  |  |  |  | 0.32 | 0.399 | 0.362 | 0.266 | 0.343
9 | NCI-H2342 |  |  |  |  |  | 0.738 | 0.71 | 0.781 | 0.717 | 0.735 |  |  |  |  |  | 0.602 | 0.631 | 0.488 | 0.488 | 0.504
10 | ABC-1 |  |  |  |  |  | 1.14 | 1.12 | 1.07 | 1.18 | 1.18 | 1.54 | 1.19 | 1.22 | 1.2 | 1.08 | 0.175 | 0.208 | 0.201 | 0.208 | 0.192
11 | NCI-H661 |  |  |  |  |  | 0.733 | 0.837 | 0.826 | 0.938 | 0.843 | 0.915 | 0.863 | 0.928 | 0.942 | 0.891 | 0.347 | 0.355 | 0.36 | 0.361 | 0.38
12 | NCI-H358 |  |  |  |  |  | 0.673 | 0.808 | 0.738 | 0.619 | 0.639 | 0.569 | 0.566 | 0.507 | 0.459 | 0.793 | 0.104 | 0.101 | 0.115 | 0.11 | 0.106
13 | EBC-1 | 0.475 | 0.38 | 0.421 | 0.384 | 0.55 |  |  |  |  |  | 0.177 | 0.212 | 0.193 | 0.162 | 0.208 |  |  |  |  | 
14 | NCI-H650 |  |  |  |  |  | 0.368 | 0.414 | 0.58 | 0.395 | 0.774 | 0.771 | 0.638 | 0.563 | 0.645 | 0.789 | 0.713 | 0.689 | 0.725 | 0.824 | 0.854
15 | NCI-H1792 | 0.671 | 0.637 | 0.62 | 0.751 | 0.588 |  |  |  |  |  | 0.998 | 0.977 | 0.997 | 1.04 | 0.971 |  |  |  |  | 
16 | A549 | 1.21 | 1.11 | 1.24 | 1.19 | 1.14 |  |  |  |  |  | 0.702 | 0.763 | 0.741 | 0.694 | 0.733 |  |  |  |  | 
17 | NCI-H1703 | 1.18 | 1.41 | 0.84 | 0.775 | 0.33 |  |  |  |  |  | 0.651 | 0.836 | 0.779 | 0.547 | 0.31 |  |  |  |  | 
18 | LCLC-103H |  |  |  |  |  | 0.731 | 0.746 | 0.756 | 0.872 | 0.8 | 0.992 | 0.978 | 0.993 | 0.946 | 0.916 | 0.539 | 0.414 | 0.477 | 0.415 | 0.53
19 | NCI-H1563 |  |  |  |  |  |  |  |  |  |  | 0.829 | 0.855 | 0.839 | 0.838 | 0.814 |  |  |  |  | 
20 | NCI-H1395 | 1.26 | 1.53 | 1.26 | 1.01 | 1.21 | 0.678 | 0.622 | 0.787 | 0.811 | 0.924 |  |  |  |  |  | 0.721 | 0.75 | 0.81 | 0.765 | 0.815
